Results on 37 compounds are retold here after US6881741B2 (ViroChem Pharma Inc., priority 2001, dated 2005).

Like-named read-outs stand apart in the source and are kept apart here.

This test addresses recombinant HCV NS5B (HCV RNA-dependent RNA polymerase) (Hepatitis C virus genotype 1b, UniProt P26663). Nature of the test: biochemical.
Setting [1] is: related polymerase activity (Example 27 list), read-out: IC50.
Where [2] appears, read: HCV polymerase activity, list of compounds of Example 27, read-out: IC50 (polymerase activity).

Chain of recombinant HCV NS5B (HCV RNA-dependent RNA polymerase) (P26663 2420-3010 limits assumed): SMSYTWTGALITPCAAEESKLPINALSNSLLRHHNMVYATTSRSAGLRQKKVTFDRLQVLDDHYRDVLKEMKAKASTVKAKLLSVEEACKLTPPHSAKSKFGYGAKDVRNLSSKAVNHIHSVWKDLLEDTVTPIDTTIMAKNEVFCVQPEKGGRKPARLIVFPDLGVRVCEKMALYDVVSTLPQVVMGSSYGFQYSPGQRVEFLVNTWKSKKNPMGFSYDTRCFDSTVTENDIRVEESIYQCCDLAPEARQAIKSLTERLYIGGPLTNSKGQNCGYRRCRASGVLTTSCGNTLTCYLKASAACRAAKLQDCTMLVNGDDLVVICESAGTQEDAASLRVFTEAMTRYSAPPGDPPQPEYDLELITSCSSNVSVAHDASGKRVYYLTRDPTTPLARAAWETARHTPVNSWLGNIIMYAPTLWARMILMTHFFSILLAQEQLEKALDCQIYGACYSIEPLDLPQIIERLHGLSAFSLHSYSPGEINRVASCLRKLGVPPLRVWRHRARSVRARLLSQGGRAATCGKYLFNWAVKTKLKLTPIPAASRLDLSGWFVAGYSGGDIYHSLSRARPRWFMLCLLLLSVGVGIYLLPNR

A word on the IC50: it is the concentration that gives 50% inhibition. As to `Cc1ccc(S(=O)(=O)Nc2cc(-c3ccc(S(C)(=O)=O)cc3)sc2C(=O)O)c(C)c1` [Compound 321, 3-(2,4-DIMETHYL- BENZENESULFONYLAMINO)-5-(4- METHANESULFONYL-PHENYL)- THIOPHENE-2-CARBOXYLIC ACID], under setting [1], the IC50 was less than 5 µM.

Consider `Cc1ccc(S(=O)(=O)Nc2cc(-c3ccccc3)sc2C(=O)NC2CCC2)cc1` [Compound 567, 5-PHENYL-3-(TOLUENE-4- SULFONYLAMINO)-THIOPHENE-2- CARBOXYLIC ACID CYCLOBUTYLAMIDE], for which the IC50 under setting [2] was in the range of 5 to 20 µM.

Regarding `CC1CCC(C(=O)N(c2ccncc2)c2cc(-c3ccccc3)sc2C(=O)O)CC1` (stereo not shown) [Compound 525, 3-[(4-METHYL- CYCLOHEXANECARBONYL)-PYRIDIN-4- YL-AMINO]-5-PHENYL-THIOPHENE-2- CARBOXYLIC ACID], the IC50 under setting [2] is less than 5 µM.

In the case of `CC(C)(C)c1cc(NS(=O)(=O)c2ccc(Cl)cc2)c(C(=O)O)s1` [Compound 10, 5-TERT-BUTYL-3-(4-CHLORO-BENZENESULFONYLAMINO)-THIOPHENE-2-CARBOXYLIC ACID], the IC50 under setting [1] is less than 5 µM.

`CC(C)N(C(=O)c1cc(-c2ccccc2)sc1C(=O)O)c1ccc(Cl)cc1Cl` [Compound 583, 3-[(2,4-DICHLORO-PHENYL)-ISOPROPYL- CARBAMOYL]-5-PHENYL-THIOPHENE-2- CARBOXYLIC ACID]: the IC50 under setting [2] is less than 5 µM.

As to `Cc1ccc(C(=O)N(C)c2cc(-c3cccc(C#N)c3)sc2C(=O)O)cc1` [Compound 206, 5-(3-CYANO-PHENYL)-3-[METHYL-(4-METHYL-BENZOYL)-AMINO]-THIOPHENE-2-CARBOXYLIC ACID], the IC50 under setting [1] was less than 5 µM.

`COc1cc(C)ccc1C(=O)N(C)c1cc(-c2ccccc2)sc1C(=O)O` [Compound 205, 3-[(2-METHOXY-4-METHYL-BENZOYL)-METHYL-AMINO]-5-PHENYL-THIOPHENE-2-CARBOXYLIC ACID]: under setting [1], the IC50 is 5 to 20 µM.

Turning to `CCN(C(=O)C1CCCC1)c1cc(-c2ccccc2)sc1C(=O)O` [Compound 391, 3-(CYCLOPENTANECARBONYL-ETHYL- AMINO)-5-PHENYL-THIOPHENE-2- CARBOXYLIC ACID], under setting [1], the IC50 fell in the range of 5 to 20 µM.

`CC(C)N(C(=O)c1ccc(Cl)cc1Cl)c1cc(-c2cccc(Cl)c2)sc1C(=O)O` [Compound 294, 5-(3-CHLORO-PHENYL)-3-[(2,4-DICHLORO-BENZOYL)-ISOPROPYL-AMINO]-THIOPHENE-2-CARBOXYLIC ACID]: the IC50 under setting [1] is less than 5 µM.

On to `O=C(O)c1sc(-c2ccccc2)cc1NC(=O)N1CCc2ccccc2C1` [Compound 180, 3-[(3,4-DIHYDRO-1H-ISOQUINOLINE-2-CARBONYL)-AMINO]-5-PHENYL-THIOPHENE-2-CARBOXYLIC ACID], for which the IC50 under setting [1] fell in the range of 5 to 20 µM.

For the compound `CCC(=O)N(Cc1ccc(C(F)(F)F)cc1)c1cc(-c2ccccc2)sc1C(=O)O` [Compound 410, 5-PHENYL-3-[PROPIONYL-(4- TRIFLUOROMETHYL-BENZYL)-AMINO]- THIOPHENE-2-CARBOXYLIC ACID], the IC50 under setting [2] is 5 to 20 µM.

Regarding `Cc1ccccc1S(=O)(=O)Nc1cc(-c2cc3ccccc3s2)sc1C(=O)O` [Compound 230, 5-BENZO[B]THIOPHEN-2-YL-3-(TOLUENE-2-SULFONYLAMINO)-THIOPHENE-2-CARBOXYLIC ACID], the IC50 under setting [1] was less than 5 µM.

As for `C=CCN(C(=O)Cc1c(Cl)cccc1Cl)c1cc(-c2ccccc2)sc1C(=O)O` [Compound 353, 3-{ALLYL-[2-(2,6-DICHLORO-PHENYL)- ACETYL]-AMINO}-5-PHENYL-THIOPHENE- 2-CARBOXYLIC ACID], the IC50 under setting [1] lay within 5 to 20 µM.

As to `O=C(O)c1sc(-c2ccccc2)cc1N(C(=O)c1ccc(Cl)cc1Cl)c1ccccc1` [Compound 208, 3-[(2,4-DICHLORO-BENZOYL)-PHENYL-AMINO]-5-PHENYL-THIOPHENE-2-CARBOXYLIC ACID], the IC50 under setting [1] is less than 5 µM.

With `Cc1cc(S(=O)(=O)Nc2cc(-c3ccc(F)cc3)sc2C(=O)O)c(C)cc1Cl` [Compound 8, 3-(4-CHLORO-2,5-DIMETHYL-BENZENESULFONYLAMINO)-5-(4-FLUORO-PHENYL)-THIOPHENE-2-CARBOXYLIC ACID], the IC50 under setting [1] was less than 5 µM.

Consider `CC(=O)N(Cc1ccc(F)cc1F)c1cc(-c2ccccc2)sc1C(=O)O` [Compound 483, 3-[ACETYL-(2,4-DIFLUORO-BENZYL)- AMINO]-5-PHENYL-THIOPHENE-2- CARBOXYLIC ACID], for which, under setting [2], the IC50 was 5 to 20 µM.

With `CC1CCC(C(=O)N(c2cc(-c3ccccc3)sc2C(=O)O)C(C)C)C(C)C1` (stereo not shown) [Compound 407, 3-[(2,4-DIMETHYL- CYCLOHEXANECARBONYL)-ISOPROPYL- AMINO]-5-PHENYL-THIOPHENE-2- CARBOXYLIC ACID], the IC50 under setting [2] was less than 5 µM.

`O=C(O)c1sc(-c2ccccc2)cc1NC(=O)N1CCC2(CC1)C(=O)NCN2c1ccccc1` [Compound 112, 3-[(4-OXO-1-PHENYL-1,3,8-TRIAZA-SPIRO[4,5]DECANE-8-CARBONYL)-AMINO]-5-PHENYL-THIOPHENE-2-CARBOXYLIC ACID]: the IC50 under setting [1] was less than 5 µM.

Turning to `CC(=O)N1CCC(N(C(=O)c2ccc(Cl)cc2Cl)c2cc(-c3ccccc3)sc2C(=O)O)CC1` [Compound 429, 3-[(1-ACETYL-PIPERIDIN-4-YL)-(2,4- DICHLORO-BENZOYL)-AMINO]-5- PHENYL-THIOPHENE-2-CARBOXYLIC ACID], under setting [2], the IC50 is less than 5 µM.

With `Cc1ccccc1S(=O)(=O)Nc1cc(-c2ccccc2)sc1C(=O)O` [Compound 15, 5-PHENYL-3-(TOLUENE-2-SULFONYLAMINO)-THIOPHENE-2-CARBOXYLIC ACID], the IC50 under setting [1] was greater than 20 µM.

On to `NC(=O)c1ccc(-c2cc(NS(=O)(=O)c3ccc(Cl)cc3)c(C(=O)O)s2)cc1` [Compound 265, 5-(4-CARBAMOYL-PHENYL)-3-(4-CHLORO-BENZENESULFONYLAMINO)-THIOPHENE-2-CARBOXYLIC ACID], for which the IC50 under setting [1] is less than 5 µM.

As to `CN(C(=O)c1cc(-c2ccccc2)sc1C(=O)O)c1ccc(Cl)cc1Cl` [Compound 585, 3-[(2,4-DICHLORO-PHENYL)-METHYL- CARBAMOYL]-5-PHENYL-THIOPHENE-2- CARBOXYLIC ACID], under setting [2], the IC50 is 5 to 20 µM.

With `O=C(O)c1sc(-c2ccccc2)cc1NS(=O)(=O)c1ccc(Br)cc1` [Compound 39, 3-(4-BROMO-BENZENESULFONYLAMINO)-5-PHENYL-THIOPHENE-2-CARBOXYLIC ACID], the IC50 under setting [1] was less than 5 µM.

On to `Cc1ccccc1S(=O)(=O)Nc1cc(-c2ccc3[nH]ccc3c2)sc1C(=O)O` [Compound 260, 5-(1H-INDOL-5-YL)-3-(TOLUENE-2-SULFONYLAMINO)-THIOPHENE-2-CARBOXYLIC ACID], for which, under setting [1], the IC50 was 5 to 20 µM.

In the case of `Cc1ccccc1S(=O)(=O)Nc1cc(-c2cc(F)cc(F)c2)sc1C(=O)O` [Compound 69, 5-(3,5-DIFLUORO-PHENYL)-3-(TOLUENE-2-SULFONYLAMINO)-THIOPHENE-2-CARBOXYLIC ACID], the IC50 under setting [1] was less than 5 µM.

Turning to `O=C(O)c1sc(-c2ccccc2)cc1NS(=O)(=O)c1cc(OCC(F)(F)F)ccc1OCC(F)(F)F` [Compound 176, 3-[2,5-BIS-(2,2,2-TRIFLUORO-ETHOXY)-BENZENESULFONYLAMINO]-5-PHENYL-THIOPHENE-2-CARBOXYLIC ACID], the IC50 under setting [1] lay in the range of 5 to 20 µM.

For `C/C=C/C(=O)N(CC)c1cc(-c2ccccc2)sc1C(=O)O` [Compound 394, 3-(BUT-2-ENOYL-ETHYL-AMINO)-5- PHENYL-THIOPHENE-2-CARBOXYLIC ACID], the IC50 under setting [1] is 5 to 20 µM.

`Cc1ccccc1S(=O)(=O)Nc1cc(-c2ccc(-c3ccc(Br)cc3)cc2)sc1C(=O)O` [Compound 124, 5-(4′-BROMO-BIPHENYL-4-YL)-3-(TOLUENE-2-SULFONYLAMINO)-THIOPHENE-2-CARBOXYLIC ACID]: the IC50 under setting [1] was less than 5 µM.

With `CCC(=O)N(Cc1cccc(Cl)c1)c1cc(-c2ccccc2)sc1C(=O)O` [Compound 477, 3-[(3-CHLORO-BENZYL)-PROPIONYL- AMINO]-5-PHENYL-THIOPHENE-2- CARBOXYLIC ACID], under setting [2], the IC50 lay in the range of 5 to 20 µM.

Regarding `CC(=O)c1ccc(-c2cc(NS(=O)(=O)c3ccccc3C)c(C(=O)O)s2)s1` [Compound 229, 5′-ACETYL-4-(TOLUENE-2-SULFONYLAMINO)-[2,2′]BITHIOPHENYL-5-CARBOXYLIC ACID], under setting [1], the IC50 is less than 5 µM.

In the case of `COc1ccc(C(=O)N(C)c2cc(-c3ccccc3)sc2C(=O)O)cc1OC` [Compound 276, 3-[(3,4-DIMETHOXY-BENZOYL)-METHYL-AMINO]-5-PHENYL-THIOPHENE-2-CARBOXYLIC ACID], under setting [1], the IC50 was greater than 20 µM.

Take `CCOC(=O)c1c(S(=O)(=O)Nc2cc(-c3ccccc3)sc2C(=O)O)c(-c2ccccc2)n(-c2ccccc2)c1C` [Compound 155, 4-(2-CARBOXY-5-PHENYL-THIOPHEN-3-YLSULFAMOYL)-2-METHYL-1,5-DIPHENYL-1H-PYRROLE-3-CARBOXYLIC ACID ETHYL ESTER]: the IC50 under setting [1] was less than 5 µM.

For the compound `CN(C(=O)c1cc(Cl)cc(Cl)c1)c1cc(-c2ccccc2)sc1C(=O)O` [Compound 254, 3-[(3,5-DICHLORO-BENZOYL)-METHYL-AMINO]-5-PHENYL-THIOPHENE-2-CARBOXYLIC ACID], under setting [1], the IC50 was in the range of 5 to 20 µM.

For `CC(C)N(C(=O)c1ccc(Cl)cc1Cl)c1cc(-c2ccc([S+](C)[O-])cc2)sc1C(=O)O` (stereo not shown) [Compound 374, 3-[(2,4-DICHLORO-BENZOYL)- ISOPROPYL-AMINO]-5-(4- METHANESULFINYL-PHENYL)- THIOPHENE-2-CARBOXYLIC ACID], the IC50 under setting [1] is less than 5 µM.

Turning to `CCOC(=O)c1ccccc1-c1cc(NS(=O)(=O)c2ccccc2C)c(C(=O)O)s1` [Compound 103, 5-(2-ETHOXYCARBONYL-PHENYL)-3-(TOLUENE-2-SULFONYLAMINO)-THIOPHENE-2-CARBOXYLIC ACID], under setting [1], the IC50 lay in the range of 5 to 20 µM.

For the compound `CC1CCC(C(=O)N(c2cc(-c3ccccc3)sc2C(=O)O)C2CCCCC2)CC1` (stereo not shown) [Compound 579, 3-[CYCLOHEXYL-(4-METHYL- CYCLOHEXANECARBONYL)-AMINO]-5- PHENYL-THIOPHENE-2-CARBOXYLIC ACID], the IC50 under setting [2] was less than 5 µM.

For `CCOC(=O)c1c(C)[nH]c(C)c1S(=O)(=O)Nc1cc(-c2ccccc2)sc1C(=O)O` [Compound 167, 4-(2-CARBOXY-5-PHENYL-THIOPHEN-3-YLSULFAMOYL)-2,5-DIMETHYL-1H-PYRROLE-3-CARBOXYLIC ACID ETHYL ESTER], under setting [1], the IC50 is 5 to 20 µM.
